Experimental data from PubChem BioAssay AID248 (DTP/NCI, 2004).
“And” between values parts separate entries of the source, which are not always exact repeats. Identical values can stand only once. Toxic doses and inconclusive results are not listed.

System: L1210 leukemia ip in BDF1 mice, survival T/C
Assay: NCI In Vivo Anticancer Drug Screen. Data for tumor model L1210 Leukemia (intraperitoneal) in B6D2F1 (BDF1) mice
Details: endpoint: mean survival time, higher = longer survival
Outline: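 Tumor was transplanted into mice, which were then dosed with test compound or vehicle alone. Survival was recorded for each group, and the treated figure was expressed relative to the control figure.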

[1] = dose: 5.0 mg/kg/injection, schedule: Q01DX001 (ip), vehicle: saline
[2] = dose: 10.0 mg/kg/injection, schedule: Q01DX001 (ip), vehicle: saline
[3] = dose: 20.0 mg/kg/injection, schedule: Q01DX001 (ip), vehicle: saline
[4] = dose: 40.0 mg/kg/injection, schedule: Q01DX001 (ip), vehicle: saline
[5] = dose: 100.0 mg/kg/injection, schedule: Q01DX009 (ip), vehicle: Klucel (hydroxypropylcellulose) (HPC)
[6] = dose: 100.0 mg/kg/injection, schedule: Q04DX003 (ip), vehicle: Klucel (hydroxypropylcellulose) (HPC)
[7] = dose: 200.0 mg/kg/injection, schedule: Q01DX009 (ip), vehicle: Klucel (hydroxypropylcellulose) (HPC)
[8] = dose: 200.0 mg/kg/injection, schedule: Q04DX003 (ip), vehicle: Klucel (hydroxypropylcellulose) (HPC)
[9] = dose: 400.0 mg/kg/injection, schedule: Q01DX009 (ip), vehicle: Klucel (hydroxypropylcellulose) (HPC)
[10] = dose: 400.0 mg/kg/injection, schedule: Q04DX003 (ip), vehicle: Klucel (hydroxypropylcellulose) (HPC)
[11] = dose: 100.0 mg/kg/injection, schedule: Q01DX009 (ip), vehicle: saline with Tween-80
[12] = dose: 100.0 mg/kg/injection, schedule: Q04DX003 (ip), vehicle: saline with Tween-80
[13] = dose: 200.0 mg/kg/injection, schedule: Q01DX009 (ip), vehicle: saline with Tween-80
[14] = dose: 200.0 mg/kg/injection, schedule: Q04DX003 (ip), vehicle: saline with Tween-80
[15] = dose: 400.0 mg/kg/injection, schedule: Q04DX003 (ip), vehicle: saline with Tween-80
[16] = dose: 25.0 mg/kg/injection, schedule: Q01DX009 (ip), vehicle: saline with Tween-80
[17] = dose: 50.0 mg/kg/injection, schedule: Q01DX009 (ip), vehicle: saline with Tween-80
[18] = dose: 100.0 mg/kg/injection, schedule: Q04DX002 (ip), vehicle: Klucel (hydroxypropylcellulose) (HPC)
[19] = dose: 200.0 mg/kg/injection, schedule: Q04DX002 (ip), vehicle: Klucel (hydroxypropylcellulose) (HPC)
[20] = dose: 400.0 mg/kg/injection, schedule: Q04DX002 (ip), vehicle: Klucel (hydroxypropylcellulose) (HPC)
[21] = dose: 50.0 mg/kg/injection, schedule: Q01DX009 (ip), vehicle: saline
[22] = dose: 100.0 mg/kg/injection, schedule: Q01DX009 (ip), vehicle: saline

CC(=O)Oc1cc2c[n+](C)c3c4cc(OC(C)=O)c(OC(C)=O)cc4ccc3c2cc1OC(C)=O
T/C (dose: 20.0 mg/kg/injection, schedule: Q01DX009 (ip), vehicle: saline): 101 % of control | T/C (dose: 40.0 mg/kg/injection, schedule: Q01DX009 (ip), vehicle: saline): 109 % of control | T/C (dose: 80.0 mg/kg/injection, schedule: Q01DX009 (ip), vehicle: saline): 104 % of control | T/C (dose: 120.0 mg/kg/injection, schedule: Q01DX009 (ip), vehicle: saline): 91 % of control

COc1cc(C(=O)O)c(Cc2ccccc2)c(OC)c1O
T/C [1]: 95 % of control | T/C [2]: 97 % of control | T/C [3]: 95 % of control | T/C [4]: 95 % of control | T/C (dose: 80.0 mg/kg/injection, schedule: Q01DX001 (ip), vehicle: saline): 95 % of control

O=C(NCCCl)NC1c2ccccc2CCc2ccccc21
T/C [5]: 94 % of control | T/C [6]: 106 % of control | T/C [7]: 88 % of control | T/C [8]: 105 % of control | T/C [9]: 98 % of control | T/C [10]: 90 % of control

O=P(Oc1ccc(S(=O)(=O)c2ccccc2)cc1)(Oc1ccc(S(=O)(=O)c2ccccc2)cc1)Oc1ccc(S(=O)(=O)c2ccccc2)cc1
T/C [11]: 90 % of control | T/C [12]: 90 % of control | T/C [13]: 93 % of control | T/C [14]: 91 % of control | T/C (dose: 400.0 mg/kg/injection, schedule: Q01DX009 (ip), vehicle: saline with Tween-80): 91 % of control | T/C [15]: 95 % of control

C=CCCCCCCCCC(=O)N(C)OC
T/C [16]: 97 % of control | T/C [17]: 105 % of control | T/C [11]: 94 % of control and 92 % of control

CCCCS(=O)(=O)N1CC(C)OC(C)C1 (stereo not given)
T/C [18]: 97 % of control | T/C [19]: 108 % of control | T/C [20]: 97 % of control

O=C1OC(/C=C/c2ccccc2)=NC/1=C\c1ccccc1
T/C (dose: 100.0 mg/kg/injection, schedule: Q04DX002 (ip), vehicle: saline with Tween-80): 92 % of control | T/C (dose: 200.0 mg/kg/injection, schedule: Q04DX002 (ip), vehicle: saline with Tween-80): 95 % of control | T/C (dose: 400.0 mg/kg/injection, schedule: Q04DX002 (ip), vehicle: saline with Tween-80): 92 % of control

C[N+]1(CC(O)COc2ccc(Nc3ccc(N)c4c3C(=O)c3ccccc3C4=O)cc2)CCOCC1 (stereo not given)
T/C (dose: 100.0 mg/kg/injection, schedule: Q01DX001 (ip), vehicle: acetone): 90 % of control

CCOP(=O)(OCC)Oc1cc(C)c(C#N)c(C)c1
T/C [1]: 108 % of control | T/C [2]: 108 % of control | T/C [3]: 100 % of control | T/C [4]: 103 % of control

CC1(C)CC(OP(=O)(N2CC2)N2CC2)CC(C)(C)N1O
T/C (dose: 50.0 mg/kg/injection, schedule: Q01DX001 (ip), vehicle: water): 102 % of control | T/C (dose: 100.0 mg/kg/injection, schedule: Q01DX001 (ip), vehicle: water): 98 % of control | T/C (dose: 200.0 mg/kg/injection, schedule: Q01DX001 (ip), vehicle: water): 102 % of control

CCCC(=O)OCC1OC(n2cnc3c(=S)nc(N)[nH]c32)C(OC(=O)CCC)C1OC(=O)CCC (stereo not given)
T/C (dose: 1.0 mg/kg/injection, schedule: Q01DX Z (ip), vehicle: carboxymethylcellulose (CMC)): 109 % of control | T/C (dose: 1.5 mg/kg/injection, schedule: Q01DX Z (ip), vehicle: carboxymethylcellulose (CMC)): 117 % of control | T/C (dose: 2.0 mg/kg/injection, schedule: Q01DX Z (ip), vehicle: carboxymethylcellulose (CMC)): 112 % of control | T/C (dose: 2.3 mg/kg/injection, schedule: Q01DX Z (ip), vehicle: carboxymethylcellulose (CMC)): 124 % of control | T/C (dose: 3.0 mg/kg/injection, schedule: Q01DX Z (ip), vehicle: carboxymethylcellulose (CMC)): 117 % of control | T/C (dose: 5.0 mg/kg/injection, schedule: Q01DX Z (ip), vehicle: carboxymethylcellulose (CMC)): 154 % of control | T/C (dose: 9.7 mg/kg/injection, schedule: Q01DX Z (oral), vehicle: carboxymethylcellulose (CMC)): 106 % of control | T/C (dose: 17.0 mg/kg/injection, schedule: Q01DX Z (ip), vehicle: carboxymethylcellulose (CMC)): 157 % of control and 159 % of control | T/C (dose: 25.0 mg/kg/injection, schedule: Q01DX Z (ip), vehicle: carboxymethylcellulose (CMC)): 152 % of control | T/C (dose: 27.0 mg/kg/injection, schedule: Q01DX Z (oral), vehicle: carboxymethylcellulose (CMC)): 115 % of control | T/C (dose: 37.0 mg/kg/injection, schedule: Q01DX Z (ip), vehicle: carboxymethylcellulose (CMC)): 112 % of control and 118 % of control | T/C (dose: 125.0 mg/kg/injection, schedule: Q01DX Z (oral), vehicle: carboxymethylcellulose (CMC)): 119 % of control

CCOC(=O)OC(C#N)c1ccccc1 (stereo not given)
T/C (dose: 12.5 mg/kg/injection, schedule: Q01DX009 (ip), vehicle: saline with Tween-80): 93 % of control | T/C [16]: 94 % of control

O=C(O)c1ccccc1SCc1cc(=O)[nH]c(=O)[nH]1
T/C [12]: 102 % of control | T/C [14]: 102 % of control | T/C [15]: 98 % of control

O=C(O)/C=C/c1cccc(O)c1
T/C [5]: 98 % of control | T/C [6]: 92 % of control | T/C [7]: 102 % of control | T/C [8]: 97 % of control | T/C [9]: 97 % of control | T/C [10]: 98 % of control

NC(=O)c1ccc[n+](CCc2c[nH]c3ccccc23)c1
T/C (dose: 75.0 mg/kg/injection, schedule: Q01DX001 (ip), vehicle: saline with Tween-80): 94 % of control | T/C (dose: 150.0 mg/kg/injection, schedule: Q01DX001 (ip), vehicle: saline with Tween-80): 101 % of control | T/C (dose: 300.0 mg/kg/injection, schedule: Q01DX001 (ip), vehicle: saline with Tween-80): 98 % of control

COC(CNCCO)c1ccccc1 (stereo not given)
T/C [16]: 104 % of control | T/C [17]: 98 % of control | T/C [11]: 106 % of control

COC(=O)N/N=C/c1ccccc1OC
T/C [18]: 104 % of control | T/C [19]: 104 % of control | T/C [20]: 93 % of control

NC(=S=O)c1ccccc1
T/C [17]: 93 % of control | T/C [21]: 101 % of control | T/C [11]: 97 % of control | T/C [22]: 96 % of control | T/C [13]: 93 % of control | T/C (dose: 200.0 mg/kg/injection, schedule: Q01DX009 (ip), vehicle: saline): 104 % of control

COc1cccc(/C=C/[N+](=O)[O-])c1OCc1ccccc1
T/C (dose: 12.5 mg/kg/injection, schedule: Q04DX003 (ip), vehicle: saline with Tween-80): 117 % of control | T/C (dose: 25.0 mg/kg/injection, schedule: Q04DX003 (ip), vehicle: saline with Tween-80): 95 % of control | T/C (dose: 50.0 mg/kg/injection, schedule: Q04DX003 (ip), vehicle: saline with Tween-80): 111 % of control

CN=C(NC)NCc1ccccc1
T/C (dose: 50.0 mg/kg/injection, schedule: Q01DX001 (ip), vehicle: saline): 95 % of control | T/C (dose: 100.0 mg/kg/injection, schedule: Q01DX001 (ip), vehicle: saline): 97 % of control

OCC#CC#CCO
T/C (dose: 25.0 mg/kg/injection, schedule: Q01DX009 (ip), vehicle: saline): 95 % of control | T/C [21]: 115 % of control | T/C [22]: 105 % of control | T/C (dose: 100.0 mg/kg/injection, schedule: Q04DX003 (ip), vehicle: saline): 103 % of control

CCOC(=O)c1ccc(NC(=O)Oc2ccc(Cl)cc2C)cc1
T/C [5]: 101 % of control | T/C [7]: 92 % of control | T/C [9]: 95 % of control

CC(C)c1ccc(/C=N/NC(=O)c2ccncc2)cc1
T/C [22]: 100 % of control

C[n+]1c2ccccc2c(-c2c3ccccc3[n+](C)c3ccccc23)c2ccccc21
T/C (dose: 12.5 mg/kg/injection, schedule: Q01DX001 (ip), vehicle: Klucel (hydroxypropylcellulose) (HPC)): 102 % of control | T/C (dose: 25.0 mg/kg/injection, schedule: Q01DX001 (ip), vehicle: Klucel (hydroxypropylcellulose) (HPC)): 98 % of control | T/C (dose: 50.0 mg/kg/injection, schedule: Q01DX001 (ip), vehicle: Klucel (hydroxypropylcellulose) (HPC)): 98 % of control

CC(C)(C)C(=O)C(Br)Br
T/C (dose: 25.0 mg/kg/injection, schedule: Q04DX002 (ip), vehicle: Klucel (hydroxypropylcellulose) (HPC)): 101 % of control | T/C (dose: 50.0 mg/kg/injection, schedule: Q04DX002 (ip), vehicle: Klucel (hydroxypropylcellulose) (HPC)): 96 % of control | T/C [18]: 97 % of control and 101 % of control
